Laboratory results as given in patent US20060127384A1, “Coenzyme Q10 as antiapoptotic agent” (priority 2004, published 2006).

Key:
skin grafts = assay: Apoptotic cells in skin grafts (Hoechst staining / in situ TUNEL); type: cell-based, human
Protocol: FIG. 4. Appearance of skin grafts untreated or treated with coenzyme Q10 and stained with in situ TUNEL.
FIG. 5. Number of apoptotic cells in skin grafts untreated or treated with coenzyme Q10 and stained with in situ TUNEL. Values are expressed as percentage of total cells (living+dead cells).
Isolated adipocytes in suspension were fixed with 4% paraformaldehyde for 20 min at RT (room temperature), washed 3 times with PBS and permeabilized for 5 min with 0.25% Triton X-100 in PBS solution. Washes with PBS were repeated 3 times for 5 min each time and the cells were stained with Hoechst 33258 (Sigma) nuclear dye for 30 min at 37° C. followed by washing in PBS 3 times for 5 min.
(§1) The stained cells (10^4) were affixed to polylysine-treated glass slides by gentle cyto-centrifugation or by spreading the cellular film directly on the surface, of the glass slide and mounted. Nuclear staining was examined under Nikon fluorescence microscope (20× and 40× magnification) equipped with camera. The results are expressed as the percentage of apoptotic cells (number of apoptotic cells/100 counted cells) in 10 random fields, performed by 3 independent observers.

cytochrome C = assay: Dosage of cytoplasmic cytochrome C in adipocytes by Western blotting; type: cell-based, human; settings: liposucted adipocytes, Western blot (FIG. 1)
Protocol: (§2) Quantification of Apoptotic Factors (cytocrome c, caspase 3 and 9)
(§3) Adipocytes have been collected both manually using a “Luer-lock” 10 cc. syringe following Coleman's technique, and by a liposuctor with a negative pressure adjusted to maintain −680 mmHg. After the collection, half of the sample was treated with coenzyme Q10 dissolved in Lutrol (or another amphipathic molecule) at 10 μM concentration, as reported in previous works (1, 3). The other half of collected sample was treated with Lutrol (or another amphipathic molecule) alone. Both samples were then -centrifuged. The interphase and cell pellet were collected, following Coleman's technique (6) and maintained in liquid Nitrogen.
(§4) Preparation of protein cell lysates (6) is a modification of the -method described by Rioux (7).
Liposucted cell suspensions were centrifuged at 800 g for 10 minutes. […] After removing the fat layer and the pellet of cellular debris, the protein content was quantified with Bradford reagent by spectrophotometry. Protein lysates (30 μg/lane) were separated by SDS-PAGE (10 and 15%) and analysed by Western blot analysis with specific antibodies.
(§5) Quantification of apoptotic factors was performed by densitometry.

cultured keratocytes = settings: excimer laser irradiation; cited from earlier work
[1] = system: mitochondrial Permeability Transition Pore (mPTP); settings: in response to any apoptotic stimulus; cited from earlier work
adipocytes = assay: Apoptotic events in adipocytes from explanted tissues; type: cell-based, human; settings: adipocytes maintained in the presence of coenzyme Q10
Protocol: Isolation of Adipocytes from Adipose Tissue
Modification of protocol described by Flower et al., Cytokine 21 (2003) 32-37.
For isolation, adipocyte tissue was quickly thawed, dissected with scissors into fine fragments in-digest solution consisting of Hank's buffer, supplemented with 2 mg/ml of collagenase (Type II, Sigma) and 1.5% BSA, and incubated at 37° C. for 1 hour in shaker-heater bath. The ratio of digest solution to adipose tissue was 4:1. The tissue digest was filtered through 200 μm Nylon mesh fabric in order to remove non digested tissue fragments. The adipocyte-containing layer and free oil were separated from the resulting stromovascular cell suspension by repeated centrifugation at 250×g for 5 minutes at 4° C. All the cells retrieved were morphologically typical mature adipocytes.
Detection of Apoptotic Adipocytes by Hoechst Staining […]
as §1

caspase 9 = assay: Quantification of caspase 9 in adipocytes by Western blotting and densitometry; type: cell-based, human
Protocol: as §2, §3, §4
(§6) Liposucted cell suspensions were centrifuged at 800 g for 10 minutes. 1 ml of lysis buffer (0.75 M NaCl, 10 mM HEPES, 1 mM EDTA, 1% Triton-X-100) containing a protease inhibitor mixture (final concentrations 1 μg/ml leupeptin, 10 μg/ml benzamidine, 1 μg/ml chymostatin, 1 μg/ml pepstatin A and 100 μg/ml PMSF) was added and the cell pellet was sonicated two times successively (20 sec, 100 W) to obtain whole cellular lysate. The lysate was further cleared by centrifugation at 10.000 g for 30 min in mini centrifuge. After removing the fat layer and the pellet of cellular debris, the protein content was quantified with Bradford reagent by spectrophotometry. Protein lysates (30 μg/lane) were separated by SDS-PAGE (10 and 15%) and analysed by Western blot analysis with specific antibodies.
as §5

caspase 3 = assay: Quantification of caspase 3 in adipocytes by Western blotting and densitometry; type: cell-based, human
Protocol: as §2, §3, §4, §6, §5

[2] = adipocytes collected manually (Luer-lock syringe) and by liposuctor, 10 μM in Lutrol, vs untreated samples
[3] = adipocytes collected with Coleman's technique, added prior to centrifugation and purification
[4] = cells from explanted tissues after ex vivo treatments, in the presence of coenzyme Q10

In the case of `COC1=C(OC)C(=O)C(C/C=C(\C)CC/C=C(\C)CC/C=C(\C)CC/C=C(\C)CC/C=C(\C)CC/C=C(\C)CC/C=C(\C)CC/C=C(\C)CC/C=C(\C)CCC=C(C)C)=C(C)C1=O` [coenzyme Q10, 2.3-dimethoxy-5-methyl-6-multiprenyl-1.4-benzoquinone], the “number of apoptotic events” value (skin grafts; cutaneous cells maintained in the presence of coenzyme Q10) is reported as “significantly reduced”, the “percentage of apoptotic cells” value (skin grafts; skin graft, glass slides of treated vs non treated cells (FIG. 4)) is reported as “dramatically lower” and the cell morphology (skin grafts; skin graft, treated cells, non treated cells showed nuclear condensation and fragmentation) is reported as “normal morphology of a living cell”. The “number of apoptotic cells” value (skin grafts; skin grafts immersed in coenzyme Q10-saline solution (FIG. 5)) was “drastically decreased”, the “translocation of cytochrome C to cytosol” value (cytochrome C) was “significantly inhibited” and the apoptosis (cultured keratocytes) was “able to inhibit apoptosis”. The “disruption of mitochondrial transmembrane electrochemical gradient and opening of mPTP” value [1] was “directly inhibits”, the “number of apoptotic events” value (adipocytes) was “significantly reduced” and the “reduction of caspase 9 activity compared to controls (FIG. 2)” value (caspase 9; [2]) was about 50%. For the same compound, the “caspase 9 activity evaluated by Western blotting” value (caspase 9; [3]) was “dramatically reduced”, the “reduction of caspase 9 level” value (caspase 9; [4]) was “more than 50%” and the “reduction of caspase 3 activity compared to controls (FIG. 2)” value (caspase 3; [2]) was about 50%. The “caspase 3 activity evaluated by Western blotting” value (caspase 3; [3]) was “dramatically reduced” and the “reduction of caspase 3 level” value (caspase 3; [4]) was “more than 50%”.
